The record followed here is patent US20150175655A1 (priority 2012, published 2015).

Molecules are shown by their SMILES.

The first test has as its target T1, NS3 genotype 1b protease (Hepatitis C virus genotype 1b, UniProt Q9WMX2, E1202G).
T1 construct: Purified NS3 protease domain (amino acids 1-181) of the genotype 1b and 3a virus were generated as above; K3 hexahistidine tag (N); rTEV protease cleavage site (N); made in house; host or cells: E. coli BL21AI, pET28 vector p28-N6H-Tev-NS3(181)1b
Nature of the test: Ki determination, NS3 protease genotype 1b (fluorogenic depsipeptide substrate). The test is classed as biochemical.
Conditions: not given
An excerpt: The coding sequence of the genotype 1b (con-1 strain) HCV NS3 protease domain was PCR amplified from a plasmid encoding the I389luc-ubi-neo/NS3-3′/ET replicon (Reblikon, Mainz, Germany). The 5′-PCR primer was designed to encode an N-terminal K3 hexahistidine tag and to insert an in-frame recombinant Tobacco Etch virus (rTEV) protease cleavage site into the NS3 coding sequence. The resulting DNA fragment was cloned into the pET28 protein expression vector (Invitrogen, Carlsbad, Calif.) yielding the p28-N6H-Tev-NS3(181)1b.
BL21AI bacteria (Invitrogen, Carlsbad, Calif.) were transformed with genotype 1b or 3 NS3 expression vectors and used to inoculate a 20 L fermentation vessel (Sartorius BBI System Inc., Bethlehem, Pa.), containing 18 L of fresh 2YT medium supplemented with 50 μg/mL kanamycin. When cell densities reached an OD600 of 1, the temperature of the cultures was reduced from 37° C. to 28° C. and induction was immediately initiated by the addition of 30 μM ZnSO4, 14 mM L-arabinose and 1 mM Isopropyl β-D-thiogalactoside (IPTG) final concentrations. Cells were harvested by centrifugation four hours post-induction and were stored as frozen pellets at −80° C. prior to NS3 protein purification.
Cell pellets were thawed and resuspended at 10 mL/g cells in lysis buffer containing 50 mM tris pH 7.6, 300 mM NaCl, 0.1% 3-[(3-cholamidopropyl)dimethylammonio]-1-propanesulfonate (CHAPS), 5% glycerol, and 2 mM β-mercaptoethanol. Cell suspensions were then sonicated, filtered through cheesecloth, and passed three times through a microfluidizer at 18,000 pounds/in^2. The resulting lysates were centrifuged at 15500 rpm for 45 minutes and supernatants were loaded onto a HisTrap HP column (GE Lifesciences) pre-equilibrated with five volumes of Ni buffer A (50 mM tris pH 7.6, 300 mM NaCl, 0.1% CHAPS, 5% glycerol, 2 mM β-mercaptoethanol, 50 mM imidazole-HCl). Proteins were eluted with a 0-100% gradient of Ni buffer A plus 500 mM imidazole-HCl and fractions were collected and pooled. The HisTrap pool was diluted 1:10 with SP-A buffer (50 mM tris pH 7.0, 10% glycerol, 2 mM dithiothreitol (DTT)) and loaded onto a HiTrap SP-HP column (GE Lifesciences) equilibrated with SP-A buffer. NS3 protease was eluted with a 0-100% SP-B buffer (SP-A buffer plus 1 M NaCl) gradient. Concentrated pools of NS3-containing SP fractions were aliquoted, snap frozen in liquid nitrogen and stored at −80° C.
Purified NS3 protease domain (amino acids 1-181) of the genotype 1b and 3a virus were generated as above.
Reactions were run at room temperature in buffer consisting of 50 mM HEPES, 40% glycerol, 0.05% Triton X-100, 10 mM DTT, and 10% DMSO. The final assay solutions contained 50 pM NS3 genotype 1b protease or 200 pM genotype 3a protease, 20 μM NS4A peptide, and 4 μM substrate (genotype 1 b) or 2 μM substrate (genotype 3a). Inhibitor concentrations varied from 100 nM to 5 pM in 3-fold dilutions, and no-inhibitor controls were included.
Compound dilutions were made in DMSO at 20× final concentration. Reaction mixtures were prepared in 96-well assay plates. A solution of enzyme and NS4A peptide in assay buffer (25 μL volume with both reagents at 4× final concentration) was mixed with 45 μL assay buffer and 5 μL of either inhibitor or DMSO, and pre-incubated at room temperature for 1 hour. The reaction was started by addition of 25 μL substrate solution at 4× final concentration. Plates were mixed vigorously for 5-10 seconds and reactions were allowed to proceed for 90 minutes. fluorescence was measured every 30 s between 90 and 120 minutes reaction time using a Tecan InfiniTe M1000 or PerkinElmer Envision multimode plate reader with an excitation wavelength of 340 nm and an emission wavelength of 490 nm.
To determine the K, rates were plotted as a function of inhibitor concentration, and the data were fit with equation 1 (Morrison, J. F., Biochimica et Biophysica Acta 1969, 185, 269-286) to calculate Ki^app using GraphPad Prism 5.
One may read the Ki as a dissociation constant, usually derived from enzyme kinetics or from competition with a known ligand. In turn, `CC[C@]12C[C@@H]1CCCCCc1nc3ccc(OC)cc3nc1O[C@H]1CN(C(=O)[C@H](C(C)(C)C)NC(=O)O2)[C@H](C(=O)N[C@]2(C(=O)NS(=O)(=O)C3(C)CC3)C[C@H]2C(F)F)[C@@H]1C` [Example 42, (1aS,5S,8S,9S,10R,22aS)-5-tert-butyl-N-[(1R,2R)-2-(difluoromethyl)-1-{[(1-methylcyclopropyl)sulfonyl]carbamoyl}cyclopropyl]-1a-ethyl-14-methoxy-9-methyl-3,6-dioxo-1,1a,3,4,5,6,9,10,18,19,20,21,22,22a-tetradecahydro-8H-7,10-methanocyclopropa[18,19][1,10,3,6]dioxadiazacyclononadecino[11,12-b]quinoxaline-8-carboxamide] gave an inhibition constant (Ki) of 0.1 nM.

In the case of `CC[C@@H]1[C@@H]2CN(C(=O)[C@H](C(C)(C)C)NC(=O)O[C@@H]3C[C@H]3CCCC3CC3c3nc4ccc(OC)cc4nc3O2)[C@@H]1C(=O)N[C@]1(C(=O)NS(=O)(=O)C2(C)CC2)C[C@H]1C(F)F` (stereo partly drawn) [Example 36, (1aR,5S,8S,9S,10R,21aR)-5-tert-butyl-N-[(1R,2R)-2-(difluoromethyl)-1-{[(1-methylcyclopropyl)sulfonyl]carbamoyl}cyclopropyl]-9-ethyl-14-methoxy-3,6-dioxo-1a,3,4,5,6,9,10,17b,18,18a,19,20,21,21a-tetradecahydro-1H,8H-7,10-methanodicyclopropa[13,14:18,19][1,10,3,6]dioxadiazacyclononadecino[11,12-b]quinoxaline-8-carboxamide], the affinity corresponds to a Ki of 0.1 nM.

On to `COc1ccc2nc3c(nc2c1)O[C@H]1CN(C(=O)[C@H](C(C)(C)C)NC(=O)O[C@@H]2C[C@H]2CCCCC3(F)F)[C@H](C(=O)N[C@]2(C(=O)NS(=O)(=O)C3(C)CC3)C[C@H]2C(F)F)[C@@H]1C` [Example 46, (1aR,5S,8S,9S,10R,22aR)-5-tert-butyl-N-[(1R,2R)-2-(difluoromethyl)-1-{[(1-methylcyclopropyl)sulfonyl]carbamoyl}cyclopropyl]-18,18-difluoro-14-methoxy-9-methyl-3,6-dioxo-1,1a,3,4,5,6,9,10,18,19,20,21,22,22a-tetradecahydro-8H-7,10-methanocyclopropa[18,19][1,10,3,6]dioxadiazacyclononadecino[11,12-b]quinoxaline-8-carboxamide], for which the Ki was found to be 0.03 nM.

In the case of `CC[C@@H]1[C@@H]2CN(C(=O)[C@H](C(C)(C)C)NC(=O)O[C@]3(C)CCC[C@H]3CCCCCc3nc4ccc(OC)cc4nc3O2)[C@@H]1C(=O)N[C@]1(C(=O)NS(=O)(=O)C2(C)CC2)C[C@H]1C(F)F` [Example 39, (3aR,7S,10S,11S,12R,24aR)-7-tert-butyl-N-[(1R,2R)-2-(difluoromethyl)-1-{[(1-methylcyclopropyl)sulfonyl]carbamoyl}cyclopropyl]-11-ethyl-16-methoxy-3a-methyl-5,8-dioxo-1,2,3,3a,5,6,7,8,11,12,20,21,22,23,24,24a-hexadecahydro-10H-9,12-methanocyclopenta[18,19][1,10,3,6]dioxadiazacyclononadecino[11,12-b]quinoxaline-10-carboxamide], the affinity corresponds to a Ki of 0.08 nM.

Regarding `CCOc1ccc2nc3c(nc2c1)O[C@H]1CN(C(=O)[C@H](C(C)(C)C)NC(=O)O[C@@H]2C[C@H]2CCCCC3)[C@H](C(=O)N[C@]2(C(=O)NS(=O)(=O)C3(C)CC3)C[C@H]2C(F)F)[C@@H]1CC` [Example 69, (1aR,5S,8S,9S,10R,22aR)-5-tert-butyl-N-[(1R,2R)-2-(difluoromethyl)-1-{[(1-methylcyclopropyl)sulfonyl]carbamoyl}cyclopropyl]-14-ethoxy-9-ethyl-3,6-dioxo-1,1a,3,4,5,6,9,10,18,19,20,21,22,22a-tetradecahydro-8H-7,10-methanocyclopropa[18,19][1,10,3,6]dioxadiazacyclononadecino[11,12-b]quinoxaline-8-carboxamide], the Ki was 0.07 nM.

Compound `CC[C@@]12C[C@H]1CCCCCc1nc3ccc(OC)cc3nc1O[C@H]1CN(C(=O)[C@H](C(C)(C)C)NC(=O)O2)[C@H](C(=O)N[C@]2(C(=O)NS(=O)(=O)C3(C)CC3)C[C@H]2C(F)F)[C@@H]1C` [Example 43, (1aR,5S,8S,9S,10R,22aR)-5-tert-butyl-N-[(1R,2R)-2-(difluoromethyl)-1-{[(1-methylcyclopropyl)sulfonyl]carbamoyl}cyclopropyl]-1a-ethyl-14-methoxy-9-methyl-3,6-dioxo-1,1a,3,4,5,6,9,10,18,19,20,21,22,22a-tetradecahydro-8H-7,10-methanocyclopropa[18,19][1,10,3,6]dioxadiazacyclononadecino[11,12-b]quinoxaline-8-carboxamide] yielded a Ki of 0.06 nM.

Compound `CC[C@@H]1[C@@H]2CN(C(=O)[C@H](C(C)(C)C)NC(=O)O[C@@H]3C[C@H]3CCCCCc3nc4ccc(OC)cc4nc3O2)[C@@H]1C(=O)N[C@]1(C(=O)NS(=O)(=O)C2(C)CC2)C[C@H]1C(F)F` [Example 1, (1aR,5S,8S,9S,10R,22aR)-5-tert-butyl-N-[ (1R,2R)-2-(difluoromethyl)-1-{[(1-methylcyclopropyl)sulfonyl]carbamoyl}cyclopropyl]-9-ethyl-14-methoxy-3,6-dioxo-1,1a,3,4,5,6,9,10,18,19,20,21,22,22a-tetradecahydro-8H-7,10-methanocyclopropa[18,19][1,10,3,6]dioxadiazacyclononadecino[11,12-b]quinoxaline-8-carboxamide] showed a Ki of 0.03 nM.

Still in this test, the particulars now being: NS3 protease genotype 1b, 50 pM enzyme, 20 μM NS4A peptide, 4 μM substrate; read-out: Ki 1B.
Regarding `CC[C@@H]1[C@@H]2CN(C(=O)[C@H](C(C)(C)C)NC(=O)O[C@]3(C(F)(F)F)CCCC3CCCCCc3nc4ccc(OC)cc4nc3O2)[C@@H]1C(=O)N[C@]1(C(=O)NS(=O)(=O)C2(C)CC2)C[C@H]1C(F)F` (stereo partly drawn) [Example 9, (7S,10S,11S,12R)-7-tert-butyl-N-[(1R,2R)-2-(difluoromethyl)-1-{[(1-methylcyclopropyl)sulfonyl]carbamoyl}cyclopropyl]-11-ethyl-16-methoxy-5,8-dioxo-3aR-(trifluoromethyl)-1,2,3,3a,5,6,7,8,11,12,20,21,22,23,24,24a-hexadecahydro-10H-9,12-methanocyclopenta[18,19][1,10,3,6]dioxadiazacyclononadecino[11,12-b]quinoxaline-10-carboxamide], the Ki is 0.15 nM.

As to `CC[C@@H]1[C@@H]2CN(C(=O)[C@H](C(C)(C)C)NC(=O)O[C@@]3(C(F)(F)F)CCCC3CCCCCc3nc4ccc(OC)cc4nc3O2)[C@@H]1C(=O)N[C@]1(C(=O)NS(=O)(=O)C2(C)CC2)C[C@H]1C(F)F` (stereo partly drawn) [Example 10, (7S,10S,11S,12R)-7-tert-butyl-N-[(1R,2R)-2-(difluoromethyl)-1-{[(1-methylcyclopropyl)sulfonyl]carbamoyl}cyclopropyl]-11-ethyl-16-methoxy-5,8-dioxo-3aS-(trifluoromethyl)-1,2,3,3a,5,6,7,8,11,12,20,21,22,23,24,24a-hexadecahydro-10H-9,12-methanocyclopenta[18,19][1,10,3,6]dioxadiazacyclononadecino[11,12-b]quinoxaline-10-carboxamide], the inhibition constant Ki amounted to 0.16 nM.
